Measurements reported in patent publication US5284999A, “DNA encoding a pituitary-specific thyroid hormone receptor” (Brigham and Women's Hospital, priority 1993, dated 1994).

Test system: r-ErbAβ-2 protein (PSTHR, pituitary-specific thyroid hormone receptor)
Experiment: Competition experiments with thyroid hormone analogs on r-ErbAβ-2 protein
Type: binding, rat

O=C(O)Cc1cc(I)c(Oc2ccc(O)c(I)c2)c(I)c1 [triac, 3,5,3'-triiodothyrocetic acid]
affinity of the r-ErbAβ-2 protein (rank order among analogs): greatest
